Measured values: patent US7169932B2 (priority 2001, dated 2007)
Where two headings read alike, the source gives them in different places.

Biological target: T1, HIV-1 protease (Q7S) (Human immunodeficiency virus type 1 group M subtype B, UniProt P04585, Q495S)
T1 construct: made in house
Test: HIV-1 Protease RET Assay
Assay type: biochemical
Description: Ki's for the inhibitors of HIV-1 protease were determined using a resonance energy transfer (RET) assay. […] This enzyme is first partially purified as inclusion bodies from cell lysate. It is then solublized in 8M urea and passed through a Q-Sepharose column (Pharmacia) for further purification. To refold this protein, samples containing Q7S is dialyzed into 50 mM sodium phosphate pH 7.0, 50 mM NaCl, 10 mM DTT, and 10% glycerol.
The commercially available peptide substrate (Molecular Probes Cat. # H-2930) RE(EDANS)SQNYPIVQK(DABCYL)R is used to assess activity and Ki's. This peptide is cleaved quantitatively by HIV-1 Pr at the Tyr-Pro bond. The EDANS fluorophore absorbs at 340 nm and emits at 490 nm. The reaction is carried out in a 96 well plate in a total volume of 100 μL and is run for 12 minutes at 37 C under steady-state conditions with 5 μM substrate and 2 nM active dimer enzyme concentration. The literature value Km for this substrate and enzyme is 103+/−8 μM (See Matayoshi, et al., “Novel Fluorogenic Substrates for Assaying Retroviral Proteases by Resonance Energy Transfer,” Science 247, 954 (1990)). The buffer for this reaction is 0.1M sodium acetate pH 4.8, 1M NaCl, 1 mM EDTA, 5 mM dithiothreitol, 10% dimethyl sulfoxide and 1 mg/ml bovine serum albumin. Inhibition curves are fit using the Morrison tight binding equation.

[1] = Ave. Ki (nM), RET assay, Q7S enzyme, pH 4.8, 37 C
[2] = RET assay, Q7S enzyme, pH 4.8, 37 C, read-out: Ave. Ki
[3] = Ki, table of drawn compounds, unit inferred

`CNCCNC(=O)[C@H]1N(C(=O)[C@@H](O)[C@H](Cc2ccccc2)NC(=O)c2cccc(O)c2C)CSC1(C)C` [Example A52, 3-((2S,3S)-2-Hydroxy-3-{[1-(3-hydroxy-2-methyl-phenyl)-methanoyl]-amino}-4-phenyl-butanoyl)-5,5-dimethyl-thiazolidine-4-carboxylic acid (2-methylamino-ethyl)-amide] gave a Ki [1] of 37 nM.

With `Cc1ccccc1CNC(=O)[C@H]1N(C(=O)[C@@H](O)[C@H](Cc2ccccc2)NC(=O)c2cccnc2)CSC1(C)C` [Example B47, N-{(1S,2S)-1-Benzyl-3-[5,5-dimethyl-4-(2-methyl-benzylcarbamoyl)-thiazolidin-3-yl]-2-hydroxy-3-oxo-propyl}-nicotinamide] the Ki [1] was 6.9 nM.

For `Cc1ccccc1CNC(=O)C1N(C(=O)[C@@H](O)[C@H](Cc2ccccc2)NC(=O)c2ccccn2)CSC1(C)C` (stereo partly drawn) [Example B45, Pyridine-2-carboxylic acid {(1S,2S)-1-benzyl-3-[5,5-dimethyl-4-(2-methyl-benzylcarbamoyl)-thiazolidin-3-yl]-2-hydroxy-3-oxo-propyl}-amide], the Ki [1] was 19.7 nM.

`Cc1ccccc1CNC(=O)[C@@H]1[C@@H](C)OCN1C(=O)[C@@H](O)[C@H](Cc1ccccc1)NC(=O)c1cccc(O)c1C` [Example C5, (4S,5R)-3-((2S,3S)-2-Hydroxy-3-{[1-(3-hydroxy-2-methyl-phenyl)-methanoyl]-amino}-4-phenyl-butanoyl)-5-methyl-oxazolidine-4-carboxylic acid 2-methyl-benzylamide] gave a Ki [1] of 3.2 nM.

With `CCCNC(=O)[C@H]1N(C(=O)[C@@H](O)[C@H](Cc2ccccc2)NC(=O)c2cccc(O)c2C)COC1(C)C` [Example C7, (S)-3-((2S,3S)-2-Hydroxy-3-{[1-(3-hydroxy-2-methyl-phenyl)-methanoyl]-amino}-4-phenyl-butanoyl)-5,5-dimethyl-oxazolidine-4-carboxylic acid propylamide] the Ki [1] was 7.9 nM.

With `C=CCCC(=O)[C@H]1N(C(=O)[C@@H](O)[C@H](Cc2ccccc2)NC(=O)c2cccc(O)c2C)CSC1(C)C` [Example D1, N-[(1S,2S)-1-Benzyl-3-((R)-5,5-dimethyl-4-pent-4-enoyl-thiazolidin-3-yl)-2-hydroxy-3-oxo-propyl]-3-hydroxy-2-methyl-benzamide] the Ki [2] was under 0.01 nM.

`C=CCNC(=O)[C@H]1N(C(=O)[C@@H](O)[C@H](Cc2ccccc2)NC(=O)c2cccnc2C)CSC1(C)C` [Example B49, N-[(1S,2S)-3-(4-Allylcarbamoyl-5,5-dimethyl-thiazolidin-3-yl)-1-benzyl-2-hydroxy-3-oxo-propyl]-2-methyl-nicotinamide] gave a Ki [1] of 17.2 nM.

For `Cc1ccccc1CNC(=O)C1N(C(=O)[C@@H](O)[C@H](Cc2ccccc2)NC(=O)c2ccc(O)cn2)CSC1(C)C` (stereo partly drawn) [Example B46, Pyridine-2–5-hydroxy-carboxylic acid{(1S,2S)-1-benzyl-3-[5,5-dimethyl-4-(2-methyl-benzylcarbamoyl)-thiazolidin-3-yl]-2-hydroxy-3-oxo-propyl}-amide], the Ki [2] was 12.5 nM.

`Cc1noc(C)c1C(=O)NC(Cc1ccccc1)C(O)C(=O)N1CSC(C)(C)C1C(=O)NCc1ccccc1C(F)(F)F` (stereo not shown) [Example B27, 3,5-Dimethyl-isoxazole-4-carboxylic acid {1-benzyl-3-[5,5-dimethyl-4-(2-trifluoromethyl-benzylcarbamoyl)-thiazolidin-3-yl]-2-hydroxy-3-oxo-propyl}-amide] showed a Ki [1] of 3.5 nM.

Compound `Cc1ccccc1CNC(=O)[C@H]1N(C(=O)[C@@H](O)[C@H](Cc2ccccc2)NC(=O)N2CC[C@@H](O)C2)CSC1(C)C` [Example B1, 3-(2-hydroxy-3-{[1-(3-hydroxy-pyrrolidin-yl)-methanoyl]-amino}-4-phenyl-butanoyl)-5,5-dimethyl-thiazolidine-4-carboxylic acid-2-methyl-benzylamide] has a Ki [2] of 2.5 nM.

`Cc1ccccc1CNC(=O)[C@H]1N(C(=O)[C@@H](O)[C@H](Cc2ccccc2)NC(=O)C2CCCC2)CSC1(C)C` showed a Ki [3] of 12.1 nM.

For `Cc1ccccc1CNC(=O)[C@@H]1CC(F)(F)CN1C(=O)[C@@H](O)[C@H](Cc1ccccc1)NC(=O)c1cccc(O)c1C` [Example C1, (S)-4,4-Difluoro-1-[(2S,3S)-2-hydroxy-3-(3-hydroxy-2-methyl-benzoylamino)-4-phenyl-butyryl]-pyrrolidine-2-carboxylic acid 2-methyl-benzylamide.], the Ki [2] was 0.38 nM.

In the case of `Cc1c(O)cccc1C(=O)N[C@@H](Cc1ccccc1)[C@H](O)C(=O)N1COC(C)(C)[C@H]1C(=O)NCC#N` [Example C10, (S)-3-((2S,3S)-2-Hydroxy-3-{[1-(3-hydroxy-2-methyl-phenyl)-methanoyl]-amino}-4-phenyl-butanoyl)-5,5-dimethyl-oxazolidine-4-carboxylic acid cyanomethyl-amide], the Ki [1] is reported as 36 nM.

`COc1cccc(CNC(=O)[C@H]2N(C(=O)[C@@H](O)[C@H](Cc3ccccc3)NC(=O)c3cccc(F)c3C)CSC2(C)C)c1` [Example B32, (R)-3-((2S,3S)-3-{[1-(3-Fluoro-2-methyl-phenyl)-methanoyl]-amino}-2-hydroxy-4-phenyl-butanoyl)-5,5-dimethyl-thiazolidine-4-carboxylic acid 3-methoxy-benzylamide] showed a Ki [1] of 4.9 nM.

`Cc1ccccc1CNC(=O)[C@H]1N(C(=O)[C@@H](O)[C@H](Cc2ccccc2)NC(=O)c2cccnc2Cl)CSC1(C)C` gave a Ki [3] of 0.75 nM.

For `Cc1cc(O)c(C)c(C(=O)N[C@@H](Cc2ccccc2)[C@H](O)C(=O)N2CSC(C)(C)[C@H]2C(=O)NCc2ccccc2C)c1` [Example B43, (R)-3-[(2S,3S)-2-Hydroxy-3-(3-hydroxy-2,5-dimethyl-benzoylamino)-4-phenyl-butyryl]-5,5-dimethyl-thiazolidine-4-carboxylic acid 2-methyl-benzylamide], the Ki [1] was 0.2 nM.

`Cc1ccccc1CNC(=O)[C@H]1N(C(=O)[C@@H](O)[C@H](Cc2ccccc2)NC(=O)c2ccc(O)cc2C)CSC1(C)C` [Example B39, (R)-3-[(2S,3S)-2-Hydroxy-3-(4-hydroxy-2-methyl-benzoylamino)-4-phenyl-butyryl]-5,5-dimethyl-thiazolidine-4-carboxylic acid 2-methyl-benzylamide] was tested, and the Ki [1] was 0.16 nM.

In the case of `Cc1c(O)cccc1C(=O)N[C@@H](Cc1ccccc1)[C@H](O)C(=O)N1CSC(C)(C)[C@H]1C(=O)NCc1cccc(C(F)(F)F)c1F`, the Ki [3] is reported as 62 nM.

For `Cc1c(O)cccc1C(=O)N[C@@H](Cc1ccccc1)[C@H](O)C(=O)N1CSC(C)(C)[C@H]1C(=O)NCc1ccc2c(c1)OCO2` [Example A22, 3-((2S,3S)-2-Hydroxy-3-{[1-(3-hydroxy-2-methyl-phenyl)-methanoyl]-amino}-4-phenyl-butanoyl)-5,5-dimethyl-thiazolidine-4-carboxylic acid (benzo[1,3]dioxol-5-ylmethyl)-amide], the Ki [2] was 0.32 nM.

Work on `Cc1c(O)cccc1C(=O)N[C@@H](Cc1ccccc1)[C@H](O)C(=O)N1CSC(C)(C)[C@H]1C(=O)NCC(C)C` yielded a Ki [3] of at most 0.1 nM.

Compound `Cc1c(O)cccc1C(=O)N[C@@H](Cc1ccccc1)[C@H](O)C(=O)N1CSC(C)(C)[C@H]1C(=O)NCc1ccc2c(c1)OC(F)(F)O2` [Example A48, (R)-3-((2S,3S)-2-Hydroxy-3-{[1-(3-hydroxy-2-methyl-phenyl)-methanoyl]-amino}-4-phenyl-butanoyl)-5,5-dimethyl-thiazolidine-4-carboxylic acid (2,2-difluoro-benzo[1,3]dioxol-5-ylmethyl)-amide] has a Ki [2] of 0.19 nM.

Compound `Cc1ccccc1CNC(=O)[C@H]1N(C(=O)[C@@H](O)[C@H](Cc2ccccc2)NC(=O)C2=CCCC2)CSC1(C)C` has a Ki [3] of 3.4 nM.

Work on `Cc1ccccc1CNC(=O)[C@H]1N(C(=O)[C@@H](O)[C@H](Cc2ccccc2)NC(=O)c2ccncc2Cl)CSC1(C)C` [Example B42, {(1S,2S)-1-Benzyl-3-[(R)-5,5-dimethyl-4-(2-methyl-benzylcarbamoyl)-thiazolidin-3-yl]-2-hydroxy-3-oxo-propyl}-3-chloro-isonicotinamide] yielded a Ki [1] of 0.73 nM.

With `Cc1ccccc1CNC(=O)[C@H]1N(C(=O)[C@@H](O)[C@H](Cc2ccccc2)NC(=O)c2ccnc(Cl)c2Cl)CSC1(C)C` [Example B41, {(1S,2S)-1-Benzyl-3-[(R)-5,5-dimethyl-4-(2-methyl-benzylcarbamoyl)-thiazolidin-3-yl]-2-hydroxy-3-oxo-propyl}-2,3-dichloro-isonicotinamide] the Ki [1] was 0.15 nM.

In the case of `Cc1c(O)cccc1C(=O)N[C@@H](Cc1ccccc1)[C@H](O)C(=O)N1CSC(C)(C)C1C(=O)NCCc1ccc(O)cc1` (stereo partly shown), the Ki [3] is reported as 13.1 nM.

Work on `COc1cccc(C(=O)[C@H]2N(C(=O)[C@@H](O)[C@H](Cc3ccccc3)NC(=O)c3cccc(O)c3C)CSC2(C)C)c1` yielded a Ki [3] of 7.4 nM.

`Cc1ccccc1CNC(=O)[C@H]1N(C(=O)[C@@H](O)[C@H](Cc2ccccc2)NC(=O)Cc2c(F)cccc2F)CSC1(C)C` gave a Ki (table of drawn compounds, unit inferred, read-out: Ki) of 72 nM.

With `CCC(C)CNC(=O)[C@H]1N(C(=O)[C@@H](O)[C@H](Cc2ccccc2)NC(=O)c2cccc(O)c2C)CSC1(C)C` (stereo partly shown) the Ki [3] was at most 0.1 nM.
